Assay [1] relates to testicular steroidogensis. Nature of the assay: Inhibition of testicular steroidogenesis in healthy men, single intranasal dose; seric LH, FSH and steroids by radioimmunoassay. Format: in vivo. As for the experimental part: The inhibitory activity of [D Ser (tbu)^6 of des Gly NH2^10 ] LH-RH ethylamide (described in German application Ser. No. 2,438,350) against testicular steroidogensis in men in good health was determined on men in good health aged 30 to 40 years. The said product was administered intranasally at a dose of 500 μg in a few drops of distilled water at 8 A.M. on the third day of the test. For 2 days prior to the treatment and for 6 days after the treatment, samples of blood were taken daily at 8 A.M., 3 P.M. and 10 P.M. On the day of administration of the LH-RH agonist, blood samples were taken at 11 A.M. and 6 P.M.
The seric concentrations of LH and FSH were measured by radioimmuno-logic dosages with double antibodies and the antibodies for measuring LH and FSH were furnished by the National Pituitary Agency of N.I.H. in Bethesda, Md. The seric concentrations of steroids was measured by radioimmuno-logic dosages in which one ml of serum was extracted with ether and the steroids were separated on a LH-20 column before measuring with radioimmuno-logic dosages. The radioimmuno-logic dosage results were determined by a program derived from model II of Rodbard et al [Second Karolinska Symposium on Research Methods in Reproductive Endrocrinology, Diczfalusky Editor, Copenhague (1970), p. 79-103]. The statistical significance was determined by the "multiple level test" of Ducan-Kramer [Kramer, Biometrics, Vol 12 (1956), p. 307]. The results are shown in the graphs on sheet 1 of the FIGS. filed herewith.

In assay [2] the test system is testicular steriodogenosis. Nature of the assay: Inhibition of testicular steroidogenesis in a patient with prostate cancer, intranasal twice a day. Format: in vivo, human. As to conditions: intranasal 500 μg twice a day. The text has this:
The inhibitory activity of [D Ser (tbu)^6 des Gly NH2^10 ] […] The results are reported in the graphs of sheet 2 of the Figures.

The subject of the next assay is ovarian steroidogenosis. The experiment in a line: Inhibition of ovarian steroidogenesis in women, intranasal, 6 consecutive cycles. It counts as in vivo. As to conditions: for reduction of seric levels of progesterone as compared to the controls: typical case (sheet 3). As for the experimental part:
The inhibitory activity of [D Ser (tbu)^6 des Gly NH2^10 ] LH-RH ethylamide on ovarian steroidogenosis in women was determined on 6 women aged 26 to 35 years with normal and regular menstrual cycles and without prior endocrinal or gynecological problems. The study was conducted for 6 consecutive cycles consisting of 2 pretreatment cycles, 2 treatment cycles and 2 post-treatment cycles. Two drops of a solution containing 500 μg of [D Ser (tbu)^6 des Gly NH2^10 ] LH-RH ethylamide were deposited on each nostril at 8 A.M. and 5P.M. of a day between the 4th and 9th day after the peak of LH-day 0. Daily blood samples were taken between 4 and 6 P.M. to measure seric levels of LH, FSH, progesterone and estradiol which were determined by radioimmuno-logictests with double antibodies. The antibodies to measure LH and FSH were furnished by the National Pituitory Agency of N.I.H. of Bethesda, Md.
Estradiol and progesterone were measued with highly specific antibodies developed against 7-(0-carboxymethyl)oxime of estradiol and 12-(0-carboxymethyl)-oxime of progesterone, respectively [3H] 17β-estradiol and ^125 I-progesterone-12-[0-carboxymethyl)-oxime]used as tracers. The serum was extracted with benzene and the steroids were separated with a LH-20 column before the determination. The radioimmunological results were exploited by the program derived from model II of Rodbard and Lewald as in Example 1 and the statistical significance was measured by the multiple level test of Ducan-Kramer of Example 1. The results are shown in the graphs of sheets 3 to 5 of the FIG.

Structures are written as SMILES. Entries after “also recorded” stand apart in the source; their conditions may differ.

Regarding `CCNC(=O)[C@@H]1CCCN1C(=O)[C@H](CCCNC(=N)N)NC(=O)[C@H](CC(C)C)NC(=O)[C@@H](COC(C)(C)C)NC(=O)[C@H](Cc1ccc(O)cc1)NC(=O)[C@H](CO)NC(=O)[C@H](Cc1c[nH]c2ccccc12)NC(=O)[C@H](Cc1c[nH]cn1)NC(=O)[C@@H]1CCC(=O)N1` [[D Ser (tbu)^6 des Gly NH2^10] LH-RH ethylamide], the “duration of drop of seric levels of testicular steroids (testosterone and its precursors)” value in assay [1] (human, single intranasal dose 500 μg) is listed as 3 days. Moreover, the “level of testosterone/steroids on the fourth day after administration” value in assay [1] (human, single intranasal dose 500 μg, fourth day (until 6th day)) is “returned to normal; also recorded: return to normal levels”. Also, the “overall effect on testicular steroidogenesis” value in assay [1] (men, intranasal 500 μg) was “inhibition of testicular steroidogenesis”. Moreover, the “level of androgenic steroids” value in assay [2] is listed as “diminution”. Also, the “level of progesterone, cycles of pretreatment as base of 100%” value with ovarian steroidogenosis (12 cycles of post-treatment) is 99%; with ovarian steroidogenosis (12 cycles of treatment), 46%. In addition, the “level of progesterone reduced as compared to the controls” value with ovarian steroidogenosis (all results (sheet 5), cycles of treatment) was 46%. Also, the “level of seric progesterone in the 2 cycles of post-treatment” value in the assay with ovarian steroidogenosis (sheet 4, post-treatment cycles) is recorded as “return to normal”. Besides, the “level of seric progesterone in the 2 cycles of treatment” value in the assay on ovarian steroidogenosis (sheet 4, treatment cycles) is “accelerated diminution”. The “reduction of seric levels of progesterone as compared to the controls” value in the assay on ovarian steroidogenosis (first cycle of treatment, intranasal 500 μg at 8 A.M. and 5 P.M.) was 13%; in the assay on ovarian steroidogenosis (second cycle of treatment), 34%.
